Results taken from patent US20260226493A1, “HERBICIDE RESISTANT PLANTS” (SYNGENTA CROP PROTECTION AG, priority 2023, published 2026).

How the values were obtained:
Experiment in all cases: BIO3-BIO1 mutant enzyme activity in the presence of herbicide, percentage inhibition (fluorometric DAPA assay)
Assay type in all cases: biochemical
Details in all cases: read-out: percentage inhibition
[1] = molecular target: T1, Arabidopsis thaliana BIO3-BIO1 (BioDA) mutants (Arabidopsis thaliana, UniProt B0F481, F370L)
T1 construct: with the predicted N-terminal mitochondrial transit peptide removed; 6xHis-tag (N); thrombin cleavage site (N); made in house; host or cells: E. coli BL21 (DE3) bioA
Procedure, shortened: (§1)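 His-tagged Arabidopsis BIO3-BIO1 mutants, expressed in E. coli and purified by IMAC and SEC, were preincubated at 50 nM with herbicide for 10 min at 20 °C in EPPS pH 8.6 with pyridoxal phosphate. Reaction with 100 μM spermidine and 20 μM KAPA ran 75 min at 20 °C; DAPA was derivatised with o-phthalaldehyde and read at ex 410/em 470 nm. […].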

[2] = molecular target: T2, Arabidopsis thaliana BIO3-BIO1 (BioDA) mutants (Arabidopsis thaliana, UniProt B0F481, A609N)
T2 construct: with the predicted N-terminal mitochondrial transit peptide removed; 6xHis-tag (N); thrombin cleavage site (N); made in house; host or cells: E. coli BL21 (DE3) bioA
Procedure, shortened: as §1

[3] = molecular target: T3, Arabidopsis thaliana BIO3-BIO1 (BioDA) mutants (Arabidopsis thaliana, UniProt B0F481, P421W)
T3 construct: with the predicted N-terminal mitochondrial transit peptide removed; 6xHis-tag (N); thrombin cleavage site (N); made in house; host or cells: E. coli BL21 (DE3) bioA
Procedure, shortened: as §1

[4] = molecular target: T4, Arabidopsis thaliana BIO3-BIO1 (BioDA) mutants (Arabidopsis thaliana, UniProt B0F481, F348T)
T4 construct: with the predicted N-terminal mitochondrial transit peptide removed; 6xHis-tag (N); thrombin cleavage site (N); made in house; host or cells: E. coli BL21 (DE3) bioA
Procedure, shortened: as §1

[5] = molecular target: T5, Arabidopsis thaliana BIO3-BIO1 (BioDA) mutants (Arabidopsis thaliana, UniProt B0F481, W392D)
T5 construct: with the predicted N-terminal mitochondrial transit peptide removed; 6xHis-tag (N); thrombin cleavage site (N); made in house; host or cells: E. coli BL21 (DE3) bioA
Procedure, shortened: as §1

[6] = molecular target: T6, Arabidopsis thaliana BIO3-BIO1 (BioDA) mutants (Arabidopsis thaliana, UniProt B0F481, S509N)
T6 construct: with the predicted N-terminal mitochondrial transit peptide removed; 6xHis-tag (N); thrombin cleavage site (N); made in house; host or cells: E. coli BL21 (DE3) bioA
Procedure, shortened: as §1

[7] = molecular target: T7, Arabidopsis thaliana BIO3-BIO1 (BioDA) mutants (Arabidopsis thaliana, UniProt B0F481, T512G)
T7 construct: with the predicted N-terminal mitochondrial transit peptide removed; 6xHis-tag (N); thrombin cleavage site (N); made in house; host or cells: E. coli BL21 (DE3) bioA
Procedure, shortened: as §1

[8] = molecular target: T8, Arabidopsis thaliana BIO3-BIO1 (BioDA) mutants (Arabidopsis thaliana, UniProt B0F481, T512N)
T8 construct: with the predicted N-terminal mitochondrial transit peptide removed; 6xHis-tag (N); thrombin cleavage site (N); made in house; host or cells: E. coli BL21 (DE3) bioA
Procedure, shortened: as §1

[9] = molecular target: T9, Arabidopsis thaliana BIO3-BIO1 (BioDA) mutants (Arabidopsis thaliana, UniProt B0F481, V354T)
T9 construct: with the predicted N-terminal mitochondrial transit peptide removed; 6xHis-tag (N); thrombin cleavage site (N); made in house; host or cells: E. coli BL21 (DE3) bioA
Procedure, shortened: as §1

[10] = molecular target: T10, Arabidopsis thaliana BIO3-BIO1 (BioDA) mutants (Arabidopsis thaliana, UniProt B0F481, S390C)
T10 construct: with the predicted N-terminal mitochondrial transit peptide removed; 6xHis-tag (N); thrombin cleavage site (N); made in house; host or cells: E. coli BL21 (DE3) bioA
Procedure, shortened: as §1

[11] = molecular target: T11, Arabidopsis thaliana BIO3-BIO1 (BioDA) mutants (Arabidopsis thaliana, UniProt B0F481, Y511R)
T11 construct: with the predicted N-terminal mitochondrial transit peptide removed; 6xHis-tag (N); thrombin cleavage site (N); made in house; host or cells: E. coli BL21 (DE3) bioA
Procedure, shortened: as §1

[12] = molecular target: T12, Arabidopsis thaliana BIO3-BIO1 (BioDA) mutants (Arabidopsis thaliana, UniProt B0F481, G608E)
T12 construct: with the predicted N-terminal mitochondrial transit peptide removed; 6xHis-tag (N); thrombin cleavage site (N); made in house; host or cells: E. coli BL21 (DE3) bioA
Procedure, shortened: as §1

T1 sequence (B0F481 23-833 F370L): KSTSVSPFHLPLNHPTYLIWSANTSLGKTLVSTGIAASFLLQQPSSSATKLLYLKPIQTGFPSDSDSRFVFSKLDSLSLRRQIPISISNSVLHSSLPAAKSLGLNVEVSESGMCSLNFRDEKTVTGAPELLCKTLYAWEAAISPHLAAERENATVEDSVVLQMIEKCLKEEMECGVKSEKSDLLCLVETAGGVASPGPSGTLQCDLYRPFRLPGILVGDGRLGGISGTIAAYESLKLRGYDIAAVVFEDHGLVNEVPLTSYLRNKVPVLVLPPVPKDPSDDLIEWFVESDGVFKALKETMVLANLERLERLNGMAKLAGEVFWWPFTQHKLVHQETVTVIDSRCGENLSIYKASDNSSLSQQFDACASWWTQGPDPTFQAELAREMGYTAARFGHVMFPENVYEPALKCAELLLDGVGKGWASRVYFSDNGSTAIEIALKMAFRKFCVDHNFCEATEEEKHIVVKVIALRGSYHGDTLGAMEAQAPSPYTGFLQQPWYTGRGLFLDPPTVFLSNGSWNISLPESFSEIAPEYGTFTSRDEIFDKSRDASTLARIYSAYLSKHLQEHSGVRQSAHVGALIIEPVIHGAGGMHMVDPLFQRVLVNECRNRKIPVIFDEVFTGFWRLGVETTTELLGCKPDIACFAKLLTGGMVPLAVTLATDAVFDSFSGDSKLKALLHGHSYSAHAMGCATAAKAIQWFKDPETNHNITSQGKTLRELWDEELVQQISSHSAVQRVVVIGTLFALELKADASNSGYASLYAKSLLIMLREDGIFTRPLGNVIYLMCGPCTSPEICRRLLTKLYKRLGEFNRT
T10 sequence (B0F481 23-833 S390C): as the sequence (B0F481 23-833 F370L) above, with L348F, S368C counted along it
T9 sequence (B0F481 23-833 V354T): as the sequence (B0F481 23-833 F370L) above, with V332T, L348F counted along it
T5 sequence (B0F481 23-833 W392D): as the sequence (B0F481 23-833 F370L) above, with L348F, W370D counted along it
T7 sequence (B0F481 23-833 T512G): as the sequence (B0F481 23-833 F370L) above, with L348F, T490G counted along it
T3 sequence (B0F481 23-833 P421W): as the sequence (B0F481 23-833 F370L) above, with L348F, P399W counted along it
T2 sequence (B0F481 23-833 A609N): as the sequence (B0F481 23-833 F370L) above, with L348F, A587N counted along it
T8 sequence (B0F481 23-833 T512N): as the sequence (B0F481 23-833 F370L) above, with L348F, T490N counted along it
T4 sequence (B0F481 23-833 F348T): as the sequence (B0F481 23-833 F370L) above, with F326T, L348F counted along it
T6 sequence (B0F481 23-833 S509N): as the sequence (B0F481 23-833 F370L) above, with L348F, S487N counted along it
T12 sequence (B0F481 23-833 G608E): as the sequence (B0F481 23-833 F370L) above, with L348F, G586E counted along it
T11 sequence (B0F481 23-833 Y511R): as the sequence (B0F481 23-833 F370L) above, with L348F, Y489R counted along it

| SMILES | inhibition at 1 µM [1] [%] | inhibition at 1 µM [2] [%] | inhibition at 1 µM [3] [%] | inhibition at 1 µM [4] [%] | inhibition at 1 µM [5] [%] | inhibition at 1 µM [6] [%] | inhibition at 1 µM [7] [%] | inhibition at 1 µM [8] [%] | inhibition at 1 µM [9] [%] | inhibition at 1 µM [10] [%] | inhibition at 1 µM [11] [%] | inhibition at 1 µM [12] [%] | inhibition at 0.2 µM [1] [%] | inhibition at 5 µM [1] [%] | inhibition at 0.2 µM [2] [%] | inhibition at 5 µM [2] [%] | inhibition at 0.2 µM [3] [%] | inhibition at 5 µM [3] [%] | inhibition at 0.2 µM [4] [%] | inhibition at 5 µM [4] [%] | further results |
| --- | --- | --- | --- | --- | --- | --- | --- | --- | --- | --- | --- | --- | --- | --- | --- | --- | --- | --- | --- | --- | --- |
| CCOC(=O)c1nn(-c2ccc3c(c2)OC(F)(F)C(F)(F)O3)c2cccc(C(C)=O)c2c1=O [Compound A, ethyl 5-acetyl-4-oxo-1-(2,2,3,3-tetrafluoro-1,4-benzodioxin-6-yl)cinnoline-3-carboxylate] | 15 | 78 | 21 | 0 | 55 | 43 | 5 | 21 | 61 | 21 | 46 | 56 | – | – | – | – | – | – | – | – | – |
| CCn1c(C)c(-c2ccc(F)cc2F)c(=O)c(C(=O)O)c1-c1ccc(Cl)c(Cl)c1 [Compound C, 2-(3,4-dichlorophenyl)-5-(2,4-difluorophenyl)-1-ethyl-6-methyl-4-oxo-pyridine-3-carboxylic acid] | 24 | 36 | 15 | 4 | 59 | 50 | 57 | 74 | 56 | 55 | 99 | 52 | 19 | 82 | 45 | 53 | 0 | 37 | 0 | 0 | inhibition at 0.2 µM [5]: 46%; inhibition at 5 µM [5]: 91%; inhibition at 0.2 µM [6]: 16%; inhibition at 5 µM [6]: 86%; inhibition at 0.2 µM [7]: 17%; inhibition at 5 µM [7]: 92%; inhibition at 0.2 µM [8]: 29%; inhibition at 5 µM [8]: 93%; inhibition at 0.2 µM [9]: 0%; inhibition at 5 µM [9]: 92%; inhibition at 0.2 µM [10]: 27%; inhibition at 5 µM [10]: 83%; inhibition at 0.2 µM [11]: 80%; inhibition at 5 µM [11]: 99%; inhibition at 0.2 µM [12]: 25%; inhibition at 5 µM [12]: 81% |
| CCn1c(Cn2ccc(C(F)(F)F)n2)cc(=O)c(C(=O)O)c1-c1ccc(Cl)c(Cl)c1 [Compound L, 2-(3,4-dichlorophenyl)-1-ethyl-4-oxo-6-[[3-(trifluoromethyl)pyrazol-1-yl]methyl]pyridine-3-carboxylic acid] | – | – | – | – | – | – | – | – | – | – | – | – | – | – | – | – | – | – | – | – | inhibition at 0.01 µM [1]: 0%; inhibition at 0.075 µM [1]: 14%; inhibition at 0.5 µM [1]: 38%; inhibition at 0.01 µM [2]: 83%; inhibition at 0.075 µM [2]: 83%; inhibition at 0.5 µM [2]: 85%; inhibition at 0.01 µM [3]: 0%; inhibition at 0.075 µM [3]: 8%; inhibition at 0.5 µM [3]: 27%; inhibition at 0.01 µM [4]: 1%; inhibition at 0.075 µM [4]: 3%; inhibition at 0.5 µM [4]: 7%; inhibition at 0.01 µM [12]: 31%; inhibition at 0.075 µM [12]: 58%; inhibition at 0.5 µM [12]: 68% |
| CCn1c(-c2ccc(Cl)c(Cl)c2)c(C(=O)O)c(=O)c2cc(F)ccc21 [Compound M, 2-(3,4-dichlorophenyl)-1-ethyl-6-fluoro-4-oxo-quinoline-3-carboxylic acid] | 25 | 49 | 0 | 2 | 37 | 39 | 39 | 74 | 47 | 44 | 96 | 55 | 0 | 80 | 44 | 62 | 0 | 18 | 15 | 7 | inhibition at 0.2 µM [5]: 14%; inhibition at 5 µM [5]: 81%; inhibition at 0.2 µM [6]: 6%; inhibition at 5 µM [6]: 78%; inhibition at 0.2 µM [7]: 9%; inhibition at 5 µM [7]: 77%; inhibition at 0.2 µM [8]: 27%; inhibition at 5 µM [8]: 93%; inhibition at 0.2 µM [9]: 4%; inhibition at 5 µM [9]: 88%; inhibition at 0.2 µM [10]: 16%; inhibition at 5 µM [10]: 74%; inhibition at 0.2 µM [11]: 74%; inhibition at 5 µM [11]: 99%; inhibition at 0.2 µM [12]: 19%; inhibition at 5 µM [12]: 85% |
